Results as given in patent US20150005288A1, “SUBSTITUTED PHENYLIMIDAZOPYRAZOLES AND USE THEREOF” (Bayer Intellectual Property GmbH, priority 2012, published 2015).

Target: T1, intracellular domain of human Tie2 (GST fusion protein) (Homo sapiens, UniProt Q02763)
T1 construct: intracellular domain of human Tie2 (amino acids 776-1124); made in house; host or cells: Baculovirus-infected insect cells (Hi5)
Experiment: Tie2 kinase assay (Tie2-TR-FRET)
Type: biochemical
Conditions: ATP concentration 1 mM, in some cases means of several independent determinations
Procedure: The Tie2-inhibitory activity of the substances according to the invention was determined with the aid of one of the Tie2-TR-FRET assays described in the sections below at an ATP concentration of 1 mM (TR-FRET=Time-Resolved Fluorescence Resonance Energy Transfer):
The enzyme used was a recombinant fusion protein of glutathione S-transferase (GST) and the intracellular domain of human Tie2 (amino acids 776-1124) which was expressed in Baculovirus-infected insect cells (Hi5) and was purified by affinity chromatography on glutathione-Sepharose. Alternatively, it is also possible to use commercially available GST-His6-Tie2 fusion protein (ProQinase GmbH, Freiburg im Breisgau, Germany). The substrate used for the kinase reaction was the biotinylated peptide biotin-Ahx-[…] (C-terminus in amide form) which is commercially available (for example from Biosyntan, Berlin, Germany).
For the assay, 50 nl of a 100-fold concentrated solution of the respective test substance in DMSO were pipetted into a black low-volume 384-well microtitre plate (Greiner Bio-One, Frickenhausen, Germany) 2 μl of a solution of the Tie2 fusion protein in assay buffer [50 mM HEPES/HCl pH 7, 10 mM MgCl2, 2.5 mM MnCl2, 1 mM dithiothreitol, 0.01% (v/v) Nonidet P-40, 0.1% (w/v) bovine serum albumin (BSA), 1× Complete EDTA-free protease inhibitor mixture (Roche)] were added, and the mixture was incubated for 15 min to allow pre-binding of the substance to the enzyme prior to the kinase reaction. The kinase reaction was then started by adding 3 μl of a solution of adenosine triphosphate (ATP, 1.67 mM→final concentration in 5 μl assay volume=1 mM) and substrate (1.67 μM→final concentration in 5 μl assay volume=1 μM) in assay buffer, and the resulting mixture was incubated for a reaction time of 60 min at 22° C. The concentration of the Tie2 fusion protein was adapted to the respective activity of the enzyme and adjusted such that the assay was carried out in the linear range. Typical concentrations were in the range of 30 ng/ml.
The reaction was stopped by addition of 5 μl of a solution of TR-FRET detection reagents [200 nM streptavidin-XL665 and 2 nM PT66-Eu chelate, a europium chelate-labelled anti-phosphotyrosine antibody (Perkin-Elmer); alternatively, it is also possible to use PT66-Tb cryptate (Cisbio Bioassays, Codolet, France)] in aqueous EDTA solution[90 mM EDTA, 0.28% (w/v) bovine serum albumin (BSA) in 50 mM HEPES pH 7.5]. The resulting mixture was incubated at 22° C. for 1 h to allow formation of the complex of the biotinylated phosphorylated substrate and the detection reagents. The amount of phosphorylated substrate was then determined by measuring the resonance energy transfer from PT66-Eu chelate to streptavidin-XL665. To this end, the fluorescence emissions at 620 nm and 665 nm after excitation at 350 nm were measured in a TR-FRET measuring instrument (for example Viewlux, Perkin-Elmer). The ratio of the emissions at 665 nm and at 620 nm was taken as a measure of the amount of phosphorylated substrate.
Usually, the test substance in question was tested on the same microtitre plate at […] different concentrations in the range from 20 μM to 0.073 nM (for example at 20 μM, 5.7 μM, 1.6 μM, 0.47 μM, 0.13 μM, 38 nM, 11 nM, 3.1 nM, 0.89 nM, 0.25 nM and 0.073 nM) in duplicate for each concentration. The dilution series were prepared prior to the assay at the stage of the 100-fold concentrated solution by serial dilution (the exact concentrations may vary depending on the pipettors used in each case). IC50 values were calculated using a 4-parameter fit, with the aid of inhouse software.
Table 1 below lists the IC50 values from this assay for individual working examples (in some cases as means of several independent individual determinations): […]

T1 sequence (Q02763 776-1124): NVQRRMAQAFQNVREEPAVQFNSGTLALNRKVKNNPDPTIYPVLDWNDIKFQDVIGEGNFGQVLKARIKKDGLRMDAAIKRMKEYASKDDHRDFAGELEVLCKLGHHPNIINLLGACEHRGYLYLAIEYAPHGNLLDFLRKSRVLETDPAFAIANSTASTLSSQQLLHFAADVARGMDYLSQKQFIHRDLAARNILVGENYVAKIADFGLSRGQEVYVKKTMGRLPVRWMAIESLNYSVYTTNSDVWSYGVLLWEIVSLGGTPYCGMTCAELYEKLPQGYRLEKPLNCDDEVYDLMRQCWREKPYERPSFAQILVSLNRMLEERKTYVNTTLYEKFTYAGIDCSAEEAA

Structure (SMILES)	IC50
Cc1ccc(NC(=O)c2cc(N3CCNCC3)cc(S(F)(F)(F)(F)F)c2)cc1-n1ccn2nc(-c3cn[nH]c3)cc12 [Example 1, N-{4-Methyl-3-[6-(1H-pyrazol-4-yl)-1H-imidazo[1,2-b]pyrazol-1-yl]phenyl}-3-(pentafluoro-λ^6-sulphanyl)-5-(piperazin-1-yl)benzamide]	0.3 nM
Cc1ccc(NC(=O)c2cccc(C(F)(F)F)c2)cc1-n1ccn2nc(-c3cn[nH]c3)cc12 [Example 5, N-{4-Methyl-3-[6-(1H-pyrazol-4-yl)-1H-imidazo[1,2-b]pyrazol-1-yl]phenyl}-3-(trifluoromethyl)-benzamide]	380 nM
Cc1ccc(NC(=O)c2cccc(C(C)(C)C)c2)cc1-n1ccn2nc(-c3cn[nH]c3)cc12 [Example 7, 3-tert-Butyl-N-{4-methyl-3-[6-(1H-pyrazol-4-yl)-1H-imidazo[1,2-b]pyrazol-1-yl]phenyl}-benzamide]	105 nM
Cc1ccc(NC(=O)c2cc(N3CCN(C)CC3)cc(C(C)(C)C)c2)cc1-n1ccn2nc(-c3cn[nH]c3)cc12 [Example 8, 3-tert-Butyl-5-(4-methylpiperazin-1-yl)-N-{4-methyl-3-[6-(1H-pyrazol-4-yl)-1H-imidazo[1,2-b]-pyrazol-1-yl]phenyl}benzamide]	1.9 nM
Cc1ccc(NC(=O)c2cc(CN3CCCC3)cc(C(C)(C)C)c2)cc1-n1ccn2nc(-c3cn[nH]c3)cc12 [Example 9, 3-tert-Butyl-N-{4-methyl-3-[6-(1H-pyrazol-4-yl)-1H-imidazo[1,2-b]pyrazol-1-yl]phenyl}-5-(pyrrolidin-1-ylmethyl)benzamide]	6.7 nM
Cc1ccc(NC(=O)c2cc(N3CCNCC3)cc(S(F)(F)(F)(F)F)c2)cc1-n1cc(C)n2nc(-c3cn[nH]c3)cc12 [Example 10, N-{4-Methyl-3-[3-methyl-6-(1H-pyrazol-4-yl)-1H-imidazo[1,2-b]pyrazol-1-yl]phenyl}-3-(pentafluoro-λ^6-sulphanyl)-5-(piperazin-1-yl)benzamide]	0.3 nM
Cc1ccc(NC(=O)c2cc(N3CCN(C)CC3)cc(S(F)(F)(F)(F)F)c2)cc1-n1cc(C)n2nc(-c3cn[nH]c3)cc12 [Example 11, N-{4-Methyl-3-[3-methyl-6-(1H-pyrazol-4-yl)-1H-imidazo[1,2-b]pyrazol-1-yl]phenyl}-3-(4-methylpiperazin-1-yl)-5-(pentafluoro-λ^6-sulphanyl)benzamide]	0.3 nM
COc1cc(C(=O)Nc2ccc(C)c(-n3cc(C)n4nc(-c5cn[nH]c5)cc34)c2)cc(S(F)(F)(F)(F)F)c1 [Example 13, 3-Methoxy-N-{4-methyl-3-[3-methyl-6-(1H-pyrazol-4-yl)-1H-imidazo[1,2-b]pyrazol-1-yl]-phenyl}-5-(pentafluoro-λ^6-sulphanyl)benzamide]	1.3 nM
Cc1ccc(NC(=O)c2cc(-n3ccnc3C)cc(C(F)(F)F)c2)cc1-n1cc(C)n2nc(-c3cn[nH]c3)cc12 [Example 14, 3-(2-Methyl-1H-imidazol-1-yl)-N-{4-methyl-3-[3-methyl-6-(1H-pyrazol-4-yl)-1H-imidazo[1,2-b]-pyrazol-1-yl]phenyl}-5-(trifluoromethyl)benzamide]	0.4 nM
Cc1ccc(NC(=O)c2cccc(S(F)(F)(F)(F)F)c2)cc1-n1ccn2nc(-c3cccnc3)cc12 [Example 15, N-{4-Methyl-3-[6-(pyridin-3-yl)-1H-imidazo[1,2-b]pyrazol-1-yl]phenyl}-3-(pentafluoro-λ^6-sulphanyl)benzamide]	24 nM
Cc1ccc(NC(=O)c2cc(N3CCNCC3)cc(S(F)(F)(F)(F)F)c2)cc1-n1ccn2nc(-c3cccnc3)cc12 [Example 17, N-{4-Methyl-3-[6-(pyridin-3-yl)-1H-imidazo[1,2-b]pyrazol-1-yl]phenyl}-3-(pentafluoro-λ^6-sulphanyl)-5-(piperazin-1-yl)benzamide]	0.3 nM
Cc1ccc(NC(=O)c2cc(N3CCOCC3)cc(S(F)(F)(F)(F)F)c2)cc1-n1ccn2nc(-c3cccnc3)cc12 [Example 19, N-{4-Methyl-3-[6-(pyridin-3-yl)-1H-imidazo[1,2-b]pyrazol-1-yl]phenyl}-3-(morpholin-4-yl)-5-(pentafluoro-λ^6-sulphanyl)benzamide]	0.9 nM
